assay: recombinant barcode read abundance after kanamycin selection (control-corrected) (log10(CPM+1)); higher = more efficient recombination; sequences stand for … in AGTGCAGAGAAAATCGGCCAGTTTTCTCTGCCTGCAGTCCGCATGCCGT…AGATTTATGCAGCGGACTGCCTTTCTCCCAAAGTGATAAACCGGACAGTATCATGGACCGGTTTTCCCGGTAATCCGTATTTGCAAGGTTGGTTTCACT; site = the 11-nt target
Procedure, shortened: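 For this pooled screen, each oligo contained a promoter, a target, a barcode and the J23119-driven first 104 bases of the bridge RNA. Gibson cloning placed it into a vector supplying the remaining 73 bp and a T7-inducible recombinase, and the pool was co-electroporated into E. coli with a donor plasmid. Recombination efficiency is derived from barcode counts per million at recombinant junctions after averaging and control correction, and is expressed on a log scale as log10(CPM+1), with selection on chloramphenicol/ampicillin/kanamycin plus 0.1 mM IPTG against a chloramphenicol/ampicillin LB agar control.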
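Also: IS621 recombinase and bridge RNA in Escherichia coli cells.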

“TGTGACTCTTGGGTTCTAACCTGTTGCCT (site TGAGACTCTAG)” and “TGTGACTCTTGGGTTCTAACCTGTTGCCT (site TGCGACTCTAG)” are within 0.2 log units of each other in “recombinant barcode read abundance (log10)” value: 0.088 for the first, 0.0199 for the second.

First: TGTGACTCTTGGGTTCTAACCTGTTGCCT (site TGGGACTCTAG)
Second: TGTGACTCTTGGGTTCTAACCTGTTGCCT (site TGTGACTCTAG)
The “recombinant barcode read abundance (log10)” value of the first is lower: 0.0547 for the first, 0.912 for the second.

Going from “TGTGAGCCTTGGGTTCTAACCTGTTGCGA (site CTGCGCTCTAT)” to “TGTGAGCCTTGGGTTCTAACCTGTTGCGA (site TGTGAGCCTTC)”, the “recombinant barcode read abundance (log10)” value rises from 0.0373 to 0.748.

Going from “TGTGCACCTTGGGTTCTAACCTGTTGCAC (site TGTGCACCTGT)” to “TGTGCACCTTGGGTTCTAACCTGTTGCAC (site TGTGCTCCTCT)”, the “recombinant barcode read abundance (log10)” value falls from 0.32 to 0.0746.

“TGTGCGACTTGGGTTCTAACCTGTTGCAC (site TGAGCTACTGT)” and “TGTGCGACTTGGGTTCTAACCTGTTGCAC (site TGTGCGACTGT)” are within 0.2 log units of each other in “recombinant barcode read abundance (log10)” value: 0.0835 for the first, 0.0665 for the second.

“TGTGCGTCTTGGGTTCTAACCTGTTGCCT (site AGTGCGTCTAG)” and “TGTGCGTCTTGGGTTCTAACCTGTTGCCT (site CGTGCGTCTAG)” are within 0.2 log units of each other in “recombinant barcode read abundance (log10)” value: 0.0921 for the first, 0.136 for the second.

Going from “TGTGCGTCTTGGGTTCTAACCTGTTGCCT (site GGTGCGTCTAG)” to “TGTGCGTCTTGGGTTCTAACCTGTTGCCT (site TGTGCGTCTAG)”, the “recombinant barcode read abundance (log10)” value rises from 0.0172 to 0.801.

Compared with “TGTGCTACTTGGGTTCTAACCTGTTGCAC (site GACCTATCTAG)”, “TGTGCTACTTGGGTTCTAACCTGTTGCAC (site TGTGCTACTGT)” is lower in “recombinant barcode read abundance (log10)” value: 0.327 for the first, 0.0867 for the second.

“TGTGCTCCTTGGGTTCTAACCTGTTGCAG (site TGTGCACCTGT)” and “TGTGCTCCTTGGGTTCTAACCTGTTGCAG (site TGTGCTCCTCT)” are within 0.2 log units of each other in “recombinant barcode read abundance (log10)” value: 0.294 for the first, 0.113 for the second.

Compared with “TGTGTCTCTTGGGTTCTAACCTGTTGCGT (site TCTGTCTCTAG)”, “TGTGTCTCTTGGGTTCTAACCTGTTGCGT (site TGTGTCTCTAC)” is higher in “recombinant barcode read abundance (log10)” value: 0.363 for the first, 2.63 for the second.

“TGTTGAGCTTGGGTTCTAACCTGTTGCCG (site TGTAGAGCTCG)” and “TGTTGAGCTTGGGTTCTAACCTGTTGCCG (site TGTCGAGCTCG)” are within 0.2 log units of each other in “recombinant barcode read abundance (log10)” value: 0.09 for the first, 0.192 for the second.

Compared with “TGTTGAGCTTGGGTTCTAACCTGTTGCCG (site TGTGGAGCTCG)”, “TGTTGAGCTTGGGTTCTAACCTGTTGCCG (site TGTTGAGCTCG)” is higher in “recombinant barcode read abundance (log10)” value: 0.258 for the first, 0.554 for the second.

“TGTTGTTCTTGGGTTCTAACCTGTTGCCT (site GGTTGTTCTAG)” and “TGTTGTTCTTGGGTTCTAACCTGTTGCCT (site TGTTGTTCTAG)” are within 0.2 log units of each other in “recombinant barcode read abundance (log10)” value: 0.0142 for the first, 0.0851 for the second.

“TGTTTAACTTGGGTTCTAACCTGTTGCCT (site TGGTTACCTAG)” and “TGTTTAACTTGGGTTCTAACCTGTTGCCT (site TGTTTAACTAG)” are within 0.2 log units of each other in “recombinant barcode read abundance (log10)” value: 0.126 for the first, 0.0368 for the second.

“TTAAAACCTTGGGTTCTAACCTGTTGCCT (site ATAAAACCTAG)” and “TTAAAACCTTGGGTTCTAACCTGTTGCCT (site CTAAAACCTAG)” are within 0.2 log units of each other in “recombinant barcode read abundance (log10)” value: 0.0421 for the first, 0.0966 for the second.

Going from “TTAAAACCTTGGGTTCTAACCTGTTGCCT (site GTAAAACCTAG)” to “TTAAAACCTTGGGTTCTAACCTGTTGCCT (site TTAAAACCTAG)”, the “recombinant barcode read abundance (log10)” value rises from 0.06 to 0.751.

“TTAACTACTTGGGTTCTAACCTGTTGCTT (site TTAACTACTAA)” and “TTAACTACTTGGGTTCTAACCTGTTGCTT (site TTAACTACTCA)” are within 0.2 log units of each other in “recombinant barcode read abundance (log10)” value: 0.0821 for the first, 0.233 for the second.

First: TTAACTACTTGGGTTCTAACCTGTTGCTT (site TTAACTACTGA)
Second: TTAACTACTTGGGTTCTAACCTGTTGCTT (site TTAACTACTTA)
The “recombinant barcode read abundance (log10)” value of the first is higher: 0.294 for the first, 0.0225 for the second.

First: TTAAGCCCTTGGGTTCTAACCTGTTGCCT (site TTAAGACCTAG)
Second: TTAAGCCCTTGGGTTCTAACCTGTTGCCT (site TTAAGCCCTAG)
The “recombinant barcode read abundance (log10)” value of the first is lower: 0.288 for the first, 1.41 for the second.

“TTAAGCTCTTGGGTTCTAACCTGTTGCCT (site ATAAGCTCTAG)” and “TTAAGCTCTTGGGTTCTAACCTGTTGCCT (site CTAAGCTCTAG)” are within 0.2 log units of each other in “recombinant barcode read abundance (log10)” value: 0.125 for the first, 0.197 for the second.

Going from “TTAAGCTCTTGGGTTCTAACCTGTTGCCT (site GTAAGCTCTAG)” to “TTAAGCTCTTGGGTTCTAACCTGTTGCCT (site TTAAGCTCTAG)”, the “recombinant barcode read abundance (log10)” value rises from 0 to 1.43.

Compared with “TTAAGTCCTTGGGTTCTAACCTGTTGCAT (site TTAAGTCCTAT)”, “TTAAGTCCTTGGGTTCTAACCTGTTGCAT (site TTAGGTCCTAA)” is lower in “recombinant barcode read abundance (log10)” value: 0.498 for the first, 0.0454 for the second.

Compared with “TTACCCACTTGGGTTCTAACCTGTTGCCT (site TTACCAACTAG)”, “TTACCCACTTGGGTTCTAACCTGTTGCCT (site TTACCCACTAG)” is higher in “recombinant barcode read abundance (log10)” value: 0.0275 for the first, 3.27 for the second.

“TTACCCACTTGGGTTCTAACCTGTTGCCT (site TTACCGACTAG)” and “TTACCCACTTGGGTTCTAACCTGTTGCCT (site TTACCTACTAG)” are within 0.2 log units of each other in “recombinant barcode read abundance (log10)” value: 0.0929 for the first, 0.151 for the second.

Compared with “TTACGAGCTTGGGTTCTAACCTGTTGCGG (site TTACGAGCTCC)”, “TTACGAGCTTGGGTTCTAACCTGTTGCGG (site TTACGCGCTCC)” is lower in “recombinant barcode read abundance (log10)” value: 1.81 for the first, 0.176 for the second.

First: TTACGAGCTTGGGTTCTAACCTGTTGCGG (site TTACGGGCTCC)
Second: TTACGAGCTTGGGTTCTAACCTGTTGCGG (site TTACGTGCTCC)
The “recombinant barcode read abundance (log10)” value of the first is higher: 0.608 for the first, 0.14 for the second.

“TTACGTACTTGGGTTCTAACCTGTTGCCT (site ATACGTACTAG)” and “TTACGTACTTGGGTTCTAACCTGTTGCCT (site CTACGTACTAG)” are within 0.2 log units of each other in “recombinant barcode read abundance (log10)” value: 0.131 for the first, 0.193 for the second.

Going from “TTACGTACTTGGGTTCTAACCTGTTGCCT (site GTACGTACTAG)” to “TTACGTACTTGGGTTCTAACCTGTTGCCT (site TTACGTACTAG)”, the “recombinant barcode read abundance (log10)” value rises from 0.19 to 1.45.

“TTACGTGCTTGGGTTCTAACCTGTTGCGG (site TTACGAGCTCC)” and “TTACGTGCTTGGGTTCTAACCTGTTGCGG (site TTACGCGCTCC)” are within 0.2 log units of each other in “recombinant barcode read abundance (log10)” value: 0.271 for the first, 0.141 for the second.

In the case of “TTACGTGCTTGGGTTCTAACCTGTTGCGG (site TTACGGGCTCC)”, the “recombinant barcode read abundance (log10)” value is reported as 0.67.

— the supplement of paper PMC11208160
